# Experimental data from patent US7531543B2, “Phenylpiperazine cycloalkanol derivatives and methods of their use” (Wyeth, priority 2003, dated 2009).
# Where a name gives a salt, the structure may show the parent alone.
# Molecular target: T1, human hNET (Homo sapiens, UniProt P23975)
# T1 construct: expressed in transfected cells; host or cells: MDCK-Net6 (MDCK cells stably transfected with hNET)
# Assay: Norepinephrine (NE) uptake assay in MDCK-Net6 cells
# Format: cell-based
# Conditions: 1 μM test compound; [3H]NE uptake, MDCK-Net6 cells stably transfected with hNET
# Method: MDCK-Net6 cells, stably transfected with human hNET (Pacholczyk, T., R. D. Blakely, and S. G. Amara, Nature, 1991, 350(6316): p. 350-4) were cultured in growth medium containing high glucose DMEM (Gibco, Cat. No. 11995), 10% FBS (dialyzed, heat-inactivated, US Bio-Technologies, Lot FBD1129HI) and 500 µg/ml G418 (Gibco, Cat. No. 10131). Cells were plated at 300,000/T75 flask and cells were split twice weekly. The JAR cell line (human placental choriocarcinoma) was purchased from ATCC (Cat. No. HTB-144). The cells were cultured in growth medium containing RPMI 1640 (Gibco, Cat. No. 72400), 10% FBS (Irvine, Cat. No. 3000), 1% sodium pyruvate (Gibco, Cat. No. 1136) and 0.25% glucose. Cells were plated at 250,000 cells/T75 flask and split twice weekly. For all assays, cells were plated in Wallac 96-well sterile plates (PerkinElmer, Cat. No. 3983498).
# Norepinephrine (NE) Uptake Assay
# On day 1, cells were plated at 3,000 cells/well in growth medium and maintained in a cell incubator (37° C., 5% CO2). On day 2, growth medium was replaced with 200 μl of assay buffer (25 mM HEPES; 120 mM NaCl; 5 mM KCl; 2.5 mM CaCl2; 1.2 mM MgSO4; 2 mg/ml glucose (pH 7.4, 37° C.)) containing 0.2 mg/ml ascorbic acid and 10 μM pargyline. Plates containing cells with 200 μl of assay buffer were equilibrated for 10 minutes at 37° C. prior to addition of compounds. A stock solution of desipramine was prepared in DMSO (10 mM) and delivered to triplicate wells containing cells for a final test concentration of 1 μM. Data from these wells were used to define non-specific NE uptake (minimum NE uptake). Test compounds were prepared in DMSO (10 mM) and diluted in assay buffer according to test range (1 to 10,000 nM). Twenty-five microliters of assay buffer (maximum NE uptake) or test compound were added directly to triplicate wells containing cells in 200 μl of assay buffer. The cells in assay buffer with test compounds were incubated for 20 minutes at 37° C. To initiate the NE uptake, [^3H]NE diluted in assay buffer (120 nM final assay concentration) was delivered in 25 μl aliquots to each well and the plates were incubated for 5 minutes (37° C.). The reaction was terminated by decanting the supernatant from the plate. The plates containing cells were washed twice with 200 μl assay buffer (37° C.) to remove free radioligand. The plates were then inverted, left to dry for 2 minutes, then reinverted and air-dried for an additional 10 minutes. The cells were lysed in 25 μl of 0.25 N NaOH solution (4° C.), placed on a shake table and vigorously shaken for 5 minutes. After cell lysis, 75 μl of scintillation cocktail was added to each well and the plates were sealed with film tape. The plates were returned to the shake table and vigorously shaken for a minimum of 10 minutes to ensure adequate partitioning of organic and aqueous solutions. The plates were counted in a Wallac Microbeta counter (PerkinElmer) to collect the raw cpm data.
# For each experiment, a data stream of cpm values collected from the Wallac Microbeta counter was downloaded to a Microsoft Excel statistical application program. Calculations of EC50 values were made using the transformed-both-sides logistic dose response program written by Wyeth Biometrics Department. The statistical program uses mean cpm values from wells representing maximum binding or uptake (assay buffer) and mean cpm values from wells representing minimum binding or uptake ((1 μM desipramine (hNET) or 1 μM paroxetine (hSERT)). Estimation of the EC50 value was completed on a log scale and the line was fit between the maximum and minimum binding or uptake values. All graphic data representation was generated by normalizing each data point to a mean percent based on the maximum and minimum binding or uptake values. The EC50 values reported from multiple experiments were calculated by pooling the raw data from each experiment and analyzing the pooled data as one experiment.
# T1 sequence (P23975 whole entry): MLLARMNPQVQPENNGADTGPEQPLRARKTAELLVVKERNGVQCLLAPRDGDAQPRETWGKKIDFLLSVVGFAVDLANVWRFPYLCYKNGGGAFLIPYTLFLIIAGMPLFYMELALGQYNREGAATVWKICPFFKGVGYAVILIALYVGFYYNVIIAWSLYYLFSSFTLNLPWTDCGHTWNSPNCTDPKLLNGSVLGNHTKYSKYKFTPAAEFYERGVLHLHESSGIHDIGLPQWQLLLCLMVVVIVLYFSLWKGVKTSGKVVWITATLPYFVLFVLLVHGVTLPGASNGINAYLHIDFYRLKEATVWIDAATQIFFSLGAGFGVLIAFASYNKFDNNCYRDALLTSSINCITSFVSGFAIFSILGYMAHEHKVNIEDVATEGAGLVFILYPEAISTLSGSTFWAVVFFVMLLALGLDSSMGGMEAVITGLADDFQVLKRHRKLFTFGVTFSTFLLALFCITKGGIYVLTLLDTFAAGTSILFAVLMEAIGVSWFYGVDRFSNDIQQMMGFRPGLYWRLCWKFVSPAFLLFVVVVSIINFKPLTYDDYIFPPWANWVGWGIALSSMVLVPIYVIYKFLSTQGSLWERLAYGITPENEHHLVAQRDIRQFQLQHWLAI
row,SMILES,inhibition at 1 µM [%]
1,"OC1(C(CN2CCNCC2)c2cccc(Cl)c2)CCCCCCC1 (centres unmarked) [Example 36, 1-[1-(3-chlorophenyl)-2-piperazin-1-ylethyl]cyclooctanol dihydrochloride]",28
2,"OC1(C(CN2CCNCC2)c2cccc(Br)c2)CCCCCCC1 (centres unmarked) [Example 37, 1-[1-(3-bromophenyl)-2-piperazin-1-ylethyl]cyclooctanol dihydrochloride]",28
3,"COc1ccc(C(CN2CCNCC2)C2(O)CCCCCCC2)cc1Br (centres unmarked) [Example 38, 1-[1-(3-bromo-4-methoxyphenyl)-2-piperazin-1-ylethyl]cyclooctanol dihydrochloride]",42
4,"CN1CCN(CC(c2cccc(Cl)c2)C2(O)CCCCCCC2)CC1 (centres unmarked) [Example 39, 1-[1-(3-chlorophenyl)-2-(4-methylpiperazin-1-yl)ethyl]cyclooctanol dihydrochloride]",42
5,"CN1CCN(CC(c2cccc(Br)c2)C2(O)CCCCCCC2)CC1 (centres unmarked) [Example 40, 1-[1-(3-bromophenyl)-2-(4-methylpiperazin-1-yl)ethyl]cyclooctanol dihydrochloride]",44
6,"COc1ccc(C(CN2CCN(C)CC2)C2(O)CCCCCCC2)cc1Br (centres unmarked) [Example 41, 1-[1-(3-bromo-4-methoxyphenyl)-2-(4-methylpiperazin-1-yl)ethyl]cyclooctanol dihydrochloride]",48

# Same assay, conditions: [3H]NE uptake, MDCK-Net6 cells stably transfected with hNET; test range 1 to 10,000 nM
row,SMILES,EC50 [nM]
1,"OC1([C@H](CN2CCNCC2)c2cccc(Cl)c2)CCCCC1 [Example 34, 1-[(1S)-1-(3-chlorophenyl)-2-piperazin-1-ylethyl]cyclohexanol dihydrochloride]",25
2,"OC1([C@@H](CN2CCNCC2)c2cccc(Cl)c2)CCCCC1 [Example 35, 1-[(1R)-1-(3-chlorophenyl)-2-piperazin-1-ylethyl]cyclohexanol dihydrochloride]",540
